{
  "source": "patent US20150133527A1",
  "about": "“REGULATION OF CARDIAC SODIUM CHANNELS BY SIRT1 AND SIRT1 ACTIVATORS” (University of Pittsburgh - Of the Commonwealth System of …, priority 2012, published 2015)",
  "key": {"native Nav1.5 (INa)": {"tested_on": "native Nav1.5 (INa)", "experiment": "Whole cell patch clamp of INa in rat neonatal cardiac myocytes", "type": "cell-based", "conditions": "5 μM"}, "native Nav1.5": {"tested_on": "native Nav1.5", "experiment": "Lysine acetylation of native Nav1.5 in rat neonatal cardiomyocytes (Western blot)", "type": "cell-based", "procedure": "FIGS. 9A-9C are a graph and a set of Western blots showing that inhibition of endogenous SIRT1 increases lysine acetylation of native Nav1.5 in rat neonatal cardiomyocytes.\n(§1) How SIRT1 acts to increase Nav1.5 membrane localization and INa was addressed. Because SIRT1 is a lysine deacetylase, it was hypothesized that it changes the acetylation status of lysine residues in Nav1.5. To test this hypothesis, whether the two proteins bind to each other was tested. […] In addition, endogenous SIRT1 co-precipitated with endogenous Nav1.5 in NRCMs and in mouse hearts (FIG. 7B). Next, if Nav1.5 is acetylated on lysine residues was determined. In HEK 293 cells expressing the full-length channel, Nav1.5 was robustly acetylated on lysine residues, and overexpression or stimulation (with resveratrol) of SIRT1 decreased, while inhibition of SIRT1 with NAM increased, this acetylation (FIG. 8)."}, "full-length Nav1.5": {"tested_on": "full-length Nav1.5", "experiment": "Lysine acetylation of full-length Nav1.5 expressed in HEK 293 cells (acetyl-lysine IP / immunoblot)", "type": "cell-based", "conditions": "HEK 293 cells expressing the full-length channel", "source_text": "FIGS. 8A and 8B show a series of Western blot images illustrating that wild-type SIRT1 deacetylates full-length Nav1.5. (8A) GFP-tagged full-length Nav1.5 was expressed in HEK 293 cells, with and without myc-tagged wild-type SIRT1, and immunoprecipitated (IP). IPs were immunoblotted (IB) with GFP and myc. (8B) Nav1.5 was expressed in HEK 293 cells. Cells were co-transfected with SIRT or treated with resveratrol or NAM. Acetyl-lysine IPs were immunoblotted for Nav1.5\nas §1"}, "Nav1.5 (III-IV)": {"tested_on": "Nav1.5 (III-IV)", "experiment": "Lysine acetylation of GST-tagged Nav1.5 (III-IV) expressed in HEK 293 cells", "type": "cell-based", "conditions": "GST-tagged loop III-IV construct in HEK 293 cells", "source_text": "GST-tagged Nav1.5 (III-IV) was expressed in HEK 293 cells. Cells were co-transfected with wild-type SIRT1 or treated with NAM or resveratrol. Nav1.5 (III-IV) was pulled down with GST-agarose, and immunoblotted (IB) with GST and acety-lysine antibodies.\nBecause Nav1.5 has 84 lysine residues, the number of putative lysine targets of SIRT1 was narrowed down by excluding the extra-cellular and membrane-spanning domains. Attention was initially focused on one intracellular region (termed loop III-IV) which is rich in lysine residues (12 lysines), based on by prior reports showing that lysines in this region are important for channel function (Grant et al., J. Clinic. Invest. 110, 1201-1209, 2002). Using a GST-tagged construct encoding the 61 amino acids in loop III-IV expressed in HEK 293 cells, if lysine acetylation of this region of Nav1.5 is regulated by SIRT1 was examined."}, "GST-Nav1.5 (III-IV)": {"tested_on": "GST-Nav1.5 (III-IV)", "experiment": "Ubiquitination of GST-Nav1.5 (III-IV) in HEK 293 cells", "type": "cell-based"}, "[1]": {"tested_on": "GFP-tagged full-length Nav1.5", "experiment": "Ubiquitination of GFP-tagged full-length Nav1.5 in HEK 293 cells", "type": "cell-based", "conditions": "resveratrol 100 μM, 4 hrs", "procedure": "FIGS. 13A and 13B are a set of Western blots showing that SIRT1 de-ubiquitinates Nav1.5. (A) HEK 293 cells were transfected with full-length GFP-tagged Nav1.5 and HA-ubiquitin. Cells were treated with resveratrol (100 μM, 4 hrs). Nav1.5 was immunoprecipitated (IP) with GFP and immunoblotted with GFP and HA. (B) HEK 293 cells were transfected with GST-tagged Nav1.5 (III-IV) and HA-ubiquitin. Cells were treated with NAM or co-transfected with SIRT1. Nav1.5 (III-IV) was pulled down with GST-agarose and immunoblotted (IB) with HA.\nPoly-ubiquitination of Nav1.5 inhibits its membrane localization (Van Bemmelen et al., Circ. Res. 95, 284-291, 2004). SIRT1 regulates ubiquitination of some of its targets, in some cases decreasing ubiquitination (Van Bemmelen et al., Circ. Res. 95, 284-291, 2004). Because SIRT1 increases membrane expression of Nav1.5, whether SIRT1 decreases ubiquitination of the channel was tested. First, the effect of the SIRT1 activator resveratrol on ubiquitination of Nav1.5 was determined. In HEK 293 cells GFP-tagged full-length Nav1.5 was robustly poly-ubiquitinated (FIG. 13A). […] Using GST-Nav1.5 (III-IV) the effect of SIRT1 on ubiquitination of this intracellular region of Nav1.5 was also examined. Similar to full-length Nav1.5, GST-Nav1.5 (III-IV) was also poly-ubiquitinated (FIG. 13B). […]"}, "QRS amplitude on ECGs": {"experiment": "QRS amplitude on ECGs", "type": "in vivo", "conditions": "suggestive of increased sodium currents", "source_text": "It is disclosed herein that SIRT1 can deacetylate Nav1.5, that Nav1.5 and SIRT1 co-immunoprecipitate, that over-expression of SIRT1 increases INa currents and that dominant negative suppression of SIRT1 or use of SIRT1 inhibitors decreases INa currents, that SIRT1 increases membrane expression of Nav1.5 and dominant negative SIRT1 decreases membrane expression of Nav1.5, that SIRT1 targets lysine 1479 in Nav1.5, that SIRT1 increases INa and dominant negative SIRT1 decreases INa by targeting lysine 1479 in Nav1.5, and that SIRT1 increases membrane expression of Nav1.5 by targeting lysine 1479 in Nav1.5. In addition there is prolongation of the PR interval, intermittent high-grade atrioventricular block on ECGs and telemetry of cardiomyocyte-specific SIRT1 knockout mice compared to wild type control mice, and decreased conduction velocity of the electrical impulse in hearts of cardiomyocyte-specific SIRT1 knockout mice compared to wild type control mice."}},
  "data": [
    {"smiles": "NC(=O)[C@H]1CCCc2c1[nH]c1ccc(Cl)cc21", "note": "[Ex-243]", "values": [
      {"measurement": "effect on INa", "setting": "native Nav1.5 (INa); compared to inactive isomer Ex-242", "value": "significantly decreased"},
      {"measurement": "effect on INa", "setting": "native Nav1.5 (INa); compared to inactive isomer Ex-242, listed as ex-243", "value": "decreases"},
      {"measurement": "lysine acetylation of native Nav1.5", "setting": "native Nav1.5", "value": "increases"}
    ]},
    {"smiles": "NC(=O)c1cccnc1", "note": "[NAM, nicotinamide]", "values": [
      {"measurement": "lysine acetylation of full-length Nav1.5", "setting": "full-length Nav1.5", "value": "increased"},
      {"measurement": "acetylation of Nav1.5 (III-IV)", "setting": "Nav1.5 (III-IV)", "value": "increased"},
      {"measurement": "poly-ubiquitination of GST-Nav1.5 (III-IV)", "setting": "GST-Nav1.5 (III-IV)", "value": "increased"}
    ]},
    {"smiles": "Oc1ccc(C=Cc2cc(O)cc(O)c2)cc1", "note": "[resveratrol]", "values": [
      {"measurement": "lysine acetylation of full-length Nav1.5", "setting": "full-length Nav1.5", "value": "decreased"},
      {"measurement": "acetylation of Nav1.5 (III-IV)", "setting": "Nav1.5 (III-IV)", "value": "decreased"},
      {"measurement": "poly-ubiquitination of full-length Nav1.5", "setting": "[1]", "value": "significantly decreased"},
      {"measurement": "QRS amplitude on ECGs", "setting": "QRS amplitude on ECGs", "value": "increased"}
    ]}
  ]
}
